Test results from patent US7176234B2, “Derivatives of gambogic acid and analogs as activators of caspases and inducers of apoptosis” (priority 2002, dated 2007).
Like-named read-outs stand apart in the source and are kept apart here.

Tests used:
T-47D = assay: Caspase cascade activation / apoptosis induction assay (N-(Ac-DEVD)-N'-ethoxycarbonyl-R110 substrate) in T-47D cells; type: cell-based, Human; settings: for Caspase activity (Ratio): ratio of net RFU to control
Procedure: (§1) Human breast cancer cell lines T-47D and ZR-75-1 were grown according to media component mixtures designated by American Type Culture Collection+10% FCS (Invitrogen Corporation), in a 5% CO2-95% humidity incubator at 37° C. T-47D and ZR-75-1 cells were maintained at a cell density between 30 and 80% confluency and for HL-60 at a cell density of 0.1 to 0.6×10^6 cells/ml. Cells were harvested at 600×g and resuspended at 0.65×10^6 cells/mL into appropriate media+10% FCS. An aliquot of 45 μl of cells was added to a well of a 96-well microtiter plate containing 5 μl of a 10% DMSO in RPMI-1640 media solution containing 1.6 to 100 μM of gambogic acid or other test compound (0.16 to 10 μM final). An aliquot of 45 μl of cells was added to a well of a 96-well microtiter plate containing […] of a 10% DMSO in RPMI-1640 media solution without test compound as the control sample. The samples were mixed by agitation and then incubated at 37° C. for 24 h in a 5% CO2-95% humidity incubator. After incubation, the samples were removed from the incubator and 50 μl of a solution containing 20 μM of N-(Ac-DEVD)-N′-ethoxycarbonyl-R110 fluorogenic substrate SEQ ID NO:1 (Cytovia, Inc.; U.S. Pat. No. 6,335,429), 20% sucrose (Sigma), 20 mM DTT (Sigma), 200 mM NaCl (Sigma), 40 mM Na PIPES buffer pH 7.2 (Sigma), and 500 μg/mL lysolecithin (Calbiochem) was added. The samples were mixed by agitation and incubated at room temperature. Using a fluorescent plate reader (Model 1420 Wallac Instruments), an initial reading (T=0) was made approximately 1–2 min after addition of the substrate solution, employing excitation at 485 nm and emission at 530 nm, to determine the background fluorescence of the control sample. After approximately 3 h of incubation, the samples were read for fluorescence as above (T=3 h).
(§2) The Relative Fluorescence Unit values (RFU) were used to calculate the sample readings as follows: RFU(T=3h)−Control RFU(T=0)=Net RFU(T=3h)
(§3) The activity of caspase cascade activation was determined by the ratio of the net RFU value for derivatives of gambogic acid to that of control samples. The EC50 (nM) was determined by a sigmoidal dose-response calculation (Prism 2.0, GraphPad Software Inc.).
Methyl 9,10-dihydro-10-morpholinyl-gambogate and gambogic acid were assayed as described in Example 28 in T47D cells. The samples of cells and testing compound were incubated for 5 h and 24 h, respectively. Table II summarizes the caspase activity (Ratio) and potency (EC50) of methyl 9,10-dihydro-10-morpholinyl-gambogate (compound B) in the 5 h and 24 h assays, in comparison with that of gambogic acid (compound A).

ZR-75-1 = assay: Caspase cascade activation / apoptosis induction assay (N-(Ac-DEVD)-N'-ethoxycarbonyl-R110 substrate) in ZR-75-1 cells; type: cell-based, Human; settings: ZR-75-1, 24 h incubation; for Caspase activity (Ratio): ratio of net RFU to control; for EC50: read-out: Caspase potency EC50
Procedure: as §1, §2, §3

KB cell line = settings: cited from earlier work
KB-V1 cell line = settings: cited from earlier work
[1] = Conversion of methyl 9,10-dihydro-10-morpholinyl-gambogate to methyl gambogate in biological media (HPLC); type: physicochemical; settings: solution of compound B 5 mg/ml in 87.5% RPMI 1640, 37° C., HPLC peak area
Procedure: A solution of methyl 9,10-dihydro-10-morpholinyl-gambogate in 87.5% RPMI 1640 biological Media (Invitrogen Corporation, Carlsbad, Calif.), 5.6% EtOH, 1.3% DMSO, and 5.6% Cremophor EL at a concentration of 5 mg/ml was stored at 37° C. The amount of methyl 9,10-dihydro-10-morpholinyl-gambogate (compound B) and methyl gambogate (compound C) was measured by integration of the peak area. The HPLC was run in the Beckman System Gold with 32 Karate software under the following conditions: […]

ICR (CD-1) mice = assay: Maximum tolerated dose (MTD) in mice, I.V.; type: in vivo; settings: mice
Procedure: For acute toxicity studies, 3 ICR (CD-1) mice were used per each dose group. Animals were given a single bolus injection in the tail vein with approximately 100 μl volume of compound formulation or vehicle formulation. Mice body weights were measured daily along with daily observation for clinical abnormalities. The maximum tolerated dose (MTD) was defined as the dose that results in less than 10% decrease in body weight with no clinical abnormalities.
For multiple dose studies, the animals were dosed once a day for 5 days.
Table IV summarizes the MTD of gambogic acid and methyl 9,10-dihydro-10-morpholinyl-gambogate in mice by I.V. administration.

[2] = Pharmacokinetic studies in mice (plasma, LC/MS/MS); type: in vivo, ICR mice
Procedure: ICR mice were administered a single dose of drug into the tail vein. At each time point, 3 animals were sacrificed and the blood was withdrawn by cardiac puncture. The blood cells were spun down and the plasma was collected and frozen immediately in liquid nitrogen. For sample processing, the plasma was thawed and extraction solvent was added along with an internal standard to assess recoveries. The samples were vortexed followed by centrifugation, and the extraction solution was collected and subjected to LC/MS/MS analysis to identify and quantitate the compound plasma concentration. The levels of compound from the three animals at each time point were averaged and the pharmacokinetic parameters calculated using WinNonLin program. Table V summarized the major PK parameters.

ZR75-1 (Breast cancer) = assay: Efficacy in human tumor xenograft mouse model ZR75-1; type: in vivo, human tumor in CD1 nu/nu mice; settings: ZR75-1 xenograft, 5 mg/kg, every other day, I.V.
Procedure: (§4) CD1 nu/nu mice were used. Viable tumor bits of transplantable human xenografts approximately 50 mg of trocar or cultured human tumor cells (nx106 cells?) were implanted subcutaneously into the flank region of mice and tumors were allowed to grow to the desired average size of 100 mg. The mice were measured for tumor size and those within the accepted tumor range of 75–125 mg, were randomized into control and treatment groups with 8–9 mice per group. Treatment was initiated on these groups which have an average starting tumor size of 100 mg. The control group was injected with the vehicle used to dissolve the drug. Injections were I.V. via the tail vein. Tumor measurements were taken every other day along with weights of animals and all animals were observed daily for survival. Tumor size was calculated by the equation of: Tumor volume=(length×width^2)/2.

[3] = test system: human tumor xenograft models; assay: Efficacy studies in human tumor xenograft models (text summary, model not named); type: in vivo, human tumor in nu/nu mice
Procedure: as §4

HeLa cells = settings: cited from earlier work
HEL cells = settings: cited from earlier work
[4] = T-47D, 24 h incubation, read-out: Caspase potency EC50

CC(C)=CCCC1(C)C=Cc2c(O)c3c(c(CC=C(C)C)c2O1)OC12C(C3=O)C(NCCN3CCOCC3)C3CC1C(C)(C)OC2(C/C=C(/C)C(=O)N1CCN(C)CC1)C3=O (stereo not shown) [Example 6, 9,10-Dihydro-10-[2-(morpholinyl)ethylamino]-gambogyl (N-Methylpiperazine)]
Caspase activity (Ratio) (T-47D; T-47D, 24 h incubation): 17 | EC50 (T-47D; [4]): 0.714 µM | Caspase activity (Ratio) (ZR-75-1): 4.1 | EC50 (ZR-75-1): 1.45 µM

CC(C)=CCc1c2c(c(O)c3c1OC14C(=CC5CC1C(C)(C)OC4(C/C=C(\C)CO)C5=O)C3=O)C=CC(C)(C)O2 (stereo not shown) [isomorellinol]
Cytotoxicity (KB cell line; KB cell line): cytotoxic | Cytotoxicity (KB-V1 cell line; KB-V1 cell line): cytotoxic

CC(C)=CCCC1(C)C=Cc2c(O)c3c(c(CC=C(C)C)c2O1)OC12C(C3=O)C(N3CCCCC3)C3CC1C(C)(C)OC2(C/C=C(/C)C(=O)N1CCN(C)CC1)C3=O (stereo not shown) [Example 5, 9,10-Dihydro-10-piperidinyl-gambogyl (N-Methylpiperazine)]
Caspase activity (Ratio) (T-47D; T-47D, 24 h incubation): 23 | EC50 (T-47D; [4]): 0.846 µM | Caspase activity (Ratio) (ZR-75-1): 5.3 | EC50 (ZR-75-1): 2.33 µM

COC(=O)/C(C)=C\C[C@@]12OC(C)(C)[C@@H]3C[C@@H](C=C4C(=O)c5c(O)c6c(c(CC=C(C)C)c5O[C@]431)O[C@](C)(CCC=C(C)C)C=C6)C2=O [C, Methyl gambogate]
Amount in biological media, 0 h ([1]; 0 h): 4 | Amount in biological media, 2 h ([1]; 2 h): 3 | Amount in biological media, 18 h ([1]; 18 h): 26 | Amount in biological media, 48 h ([1]; 48 h): 48 | Amount in biological media, 90 h ([1]; 90 h): 64

CC(C)=CCCC1(C)C=Cc2c(O)c3c(c(CC=C(C)C)c2O1)OC12C(C3=O)C(N3CCN(c4ccccn4)CC3)C3CC1C(C)(C)OC2(C/C=C(/C)C(=O)N1CCN(C)CC1)C3=O (stereo not shown) [Example 7, 9,10-Dihydro-10-[4-(2-pyridyl)piperazinyl]-gambogyl (N-Methylpiperazine)]
Caspase activity (Ratio) (T-47D; T-47D, 24 h incubation): 2.2 | EC50 (T-47D; [4]): 0.598 µM | Caspase activity (Ratio) (ZR-75-1): 1.6 | EC50 (ZR-75-1): > 10 µM

CC(C)=CCC[C@]1(C)C=Cc2c(O)c3c(c(CC=C(C)C)c2O1)O[C@]12C(=C[C@@H]4C[C@H]1C(C)(C)O[C@@]2(C/C=C(/C)C(=O)O)C4=O)C3=O [Compound A, Gambogic acid]
Activity in the caspase activation / apoptosis induction assay (in words), 5 h (T-47D; T47D cells, 5 h assay): active | Caspase activity (Ratio), 5 h (T-47D; T47D cells, 5 h assay): 29.5 | EC50 (T-47D; T47D cells, 5 h assay, read-out: Caspase potency EC50, 5 h): 1.74 µM | Activity in the caspase activation / apoptosis induction assay (in words), 24 h (T-47D; T47D cells, 24 h assay): active | Caspase activity (Ratio), 24 h (T-47D; T47D cells, 24 h assay): 12.1 | EC50 (T-47D; T47D cells, 24 h assay, read-out: Caspase potency EC50, 24 h): 0.7 µM | Multiple Dose MTD (ICR (CD-1) mice; I.V., once a day, 5 doses): 5 mg/kg | Injection site toxicity (ICR (CD-1) mice; tail vein injection): evidence of injection site toxicity, such as tail edema | T1/2, Terminal half-life ([2]; mice, single I.V. dose 5 mg/kg): 4.8 h | AUC (0-inf), Area under the curve ([2]; mouse, in vivo, iv, 5 mg/kg): 2,700 ng-h/ml | CL, Clearance ([2]; mouse, in vivo, iv, 5 mg/kg): 1.84 L/h/kg | Vss, Vol. of distribution ([2]; mouse, in vivo, iv, 5 mg/kg): 2.9 L/kg | % Tumor reduction (ZR75-1 (Breast cancer)): 20% | Best efficacy, tumor growth inhibition ([3]; human tumor cells s.c. in nu/nu mice, at doses that were toxic, not statistically significant): approximately 20% | Efficacy (in words) ([3]; summary of Table VI, gambogic acid at its maximal tolerable dose): did not produce significant efficacy | Cytotoxicity (HeLa cells): cytotoxic | Cytotoxicity (HEL cells): cytotoxic | Cytotoxicity (KB cell line): cytotoxic | Cytotoxicity (KB-V1 cell line): cytotoxic

CC(C)=CCC[C@]1(C)C=Cc2c(O)c3c(c(CC=C(C)C)c2O1)O[C@]12C(=C[C@@H]4C[C@H]1C(C)(C)O[C@@]2(C/C=C(\C)C(=O)O)C4=O)C3=O [isogambogic acid]
Cytotoxicity (KB cell line): cytotoxic | Cytotoxicity (KB-V1 cell line): cytotoxic

CC(C)=CCCC1(C)C=Cc2c(O)c3c(c(CC=C(C)C)c2O1)OC12C(C3=O)C(N3CCOCC3)C3CC1C(C)(C)OC2(C/C=C(/C)C(=O)N1CCOCC1)C3=O (stereo not shown) [Example 10, 9,10-Dihydro-10-morpholinyl-gambogyl Morpholine]
Caspase activity (Ratio) (T-47D; T-47D, 24 h incubation): 23 | EC50 (T-47D; [4]): 0.592 µM | Caspase activity (Ratio) (ZR-75-1): 7.0 | EC50 (ZR-75-1): 1.38 µM

CC(C)=CCCC1(C)C=Cc2c(O)c3c(c(CC=C(C)C)c2O1)OC12C(C3=O)C(OCCN(C)C)C3CC1C(C)(C)OC2(C/C=C(/C)C(=O)N1CCN(C)CC1)C3=O (stereo not shown) [Example 9, 9,10-Dihydro-10-(2-dimethylaminoethoxy)-gambogyl (N-Methylpiperazine)]
Caspase activity (Ratio) (T-47D; T-47D, 24 h incubation): 15 | EC50 (T-47D; [4]): 1.96 µM | Caspase activity (Ratio) (ZR-75-1): 16 | EC50 (ZR-75-1): 5.21 µM

CC(C)=CCCC1(C)C=Cc2c(O)c3c(c(CC=C(C)C)c2O1)OC12C(C3=O)C(N3CCOCC3)C3CC1C(C)(C)OC2(C/C=C(/C)C(=O)N1CCN(C)CC1)C3=O (stereo not shown) [Example 4, 9,10-Dihydro-10-morpholinyl-gambogyl (N-Methylpiperazine)]
Caspase activity (Ratio) (T-47D; T-47D, 24 h incubation): 19 | EC50 (T-47D; [4]): 1.34 µM | Caspase activity (Ratio) (ZR-75-1): 18 | EC50 (ZR-75-1): 3.98 µM
